Reference: patent US8906911B2, “Chemokine receptor antagonists” (AbbVie Inc., priority 2012, dated 2014)
Like-named read-outs stand apart in the source and are kept apart here.

What was measured:
rat CCR2 = rat CCR2 (Rattus norvegicus (Rat), UniProt O55193); assay: Inhibition of native agonist (rat MCP-1)-induced intracellular calcium release, calcium flux assay in CHO cells expressing rat CCR2 and Gα16; assay type: cell-based; settings: read-out: rCCR2 Kb
Excerpt: (§1) CHO cells expressing human CCR2B were generated as follows. cDNA for human CCR2B (cloned from human blood) was cloned into plasmid pcDNA3.1 (from Invitrogen). The resulting plasmids were separately transfected into CHO cells expressing human Gα16 (from Molecular Devices). […] CHO cells expressing rat CCR2 were generated as follows. cDNA for rat CCR2 (cloned from rat macrophage) was cloned into plasmid pEF-flag (from Chinese Academy of Science). The resulting plasmids were transfected into CHO cells expressing human Gα16 (from […]).
(§2) Inhibition of Native Agonist-Induced Intracellular Calcium Release in Cells Expressing hCCR2B or rCCR2
(§3) Calcium flux assays were performed in CHO cells expressing human CCR2B and Gα16 coupling protein, or rat CCR2 and Gα16 coupling protein. All compounds were dissolved in DMSO and assays run at a final DMSO concentration of 0.25% (v/v). Human MCP-1 was purchased from PeproTech and used at a final assay concentration of 2 nM, while rat MCP-1 was purchased from R&D and used at a final assay concentration of 4 nM. Assays with cells expressing human CCR2B were performed with human MCP-1, while assays with cells expressing rat CCR2 were performed with rat MCP-1.
(§4) Briefly, cells were cultured overnight in a microtiter plate at 8000 per well. The next day, the resultant adherent cells were incubated in assay buffer (20 mM HEPES, pH 7.4, 0.1% bovine serum albumin, and 2.5 mM probenocid in Hank's Buffered Saline Solution) containing Calcium 4 dye (Molecular Probes) at 37° C. for 60 minutes. Calcium flux assays were performed on a FLIPR^Tetra instrument (Molecular Devices) by adding compound to the cells followed by addition of native agonist and measuring the change in fluorescence as a function of time. Maximal and minimal values for fluorescence were determined using native agonist (2 nM MCP-1) for human or rat CCR2, or buffer addition, respectively. Fluorescence values were used to calculate the percent inhibition at a given compound concentration and the data fit to a sigmoidal curve in a semi-log plot to determine IC50 values. The Kb value is calculated as Kb=IC50/(1+[agonist]/EC50), where [agonist] is the concentration of agonist used and EC50 is the agonist potency determined in the previous experiments. Mean Kb values and IC50 of the compounds assayed are reported in Table 2 and Table 3 respectively.

human CCR2B = human CCR2B (Homo sapiens (Human), UniProt P41597); assay: Inhibition of native agonist (human MCP-1)-induced intracellular calcium release, calcium flux assay in CHO cells expressing human CCR2B and Gα16; assay type: cell-based; settings: for IC50: read-out: hCCR2B IC50; for Kb: read-out: hCCR2B Kb
Chain of human CCR2B (P41597 other isoform, or with tags, fused parts or gaps): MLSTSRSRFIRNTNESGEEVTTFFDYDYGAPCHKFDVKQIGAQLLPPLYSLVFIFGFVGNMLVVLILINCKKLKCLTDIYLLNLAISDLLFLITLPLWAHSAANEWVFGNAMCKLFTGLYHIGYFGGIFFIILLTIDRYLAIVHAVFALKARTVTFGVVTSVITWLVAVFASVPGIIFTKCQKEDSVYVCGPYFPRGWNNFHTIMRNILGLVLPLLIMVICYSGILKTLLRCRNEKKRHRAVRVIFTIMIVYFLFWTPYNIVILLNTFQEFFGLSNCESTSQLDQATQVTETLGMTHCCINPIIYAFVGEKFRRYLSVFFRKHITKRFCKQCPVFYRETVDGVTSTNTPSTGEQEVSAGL
Excerpt: as §1, §2, §3, §4

Chain of rat CCR2 (O55193 whole entry): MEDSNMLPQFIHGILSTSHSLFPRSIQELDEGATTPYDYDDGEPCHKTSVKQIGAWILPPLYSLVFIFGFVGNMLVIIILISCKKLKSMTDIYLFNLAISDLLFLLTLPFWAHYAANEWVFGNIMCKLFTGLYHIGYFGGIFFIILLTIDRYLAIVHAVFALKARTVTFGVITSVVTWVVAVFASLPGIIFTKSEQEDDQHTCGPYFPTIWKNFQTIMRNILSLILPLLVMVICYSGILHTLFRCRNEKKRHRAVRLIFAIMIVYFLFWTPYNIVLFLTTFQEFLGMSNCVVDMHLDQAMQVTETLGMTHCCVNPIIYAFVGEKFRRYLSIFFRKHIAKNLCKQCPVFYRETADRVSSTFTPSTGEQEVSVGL

| SMILES | Kb (rat CCR2) | IC50 (human CCR2B; calcium flux, human MCP-1 2 nM) | Kb (human CCR2B) | IC50 (human CCR2B) |
| --- | --- | --- | --- | --- |
| CO[C@@H]1COCC[C@@H]1N[C@@H]1C[C@H]2CCC[C@@]2(C(=O)N2C[C@@H]3C[C@H]2CN3c2nccc(C(F)(F)F)c2C)C1 (racemic) [Example 38, 1,5-anhydro-2,3-dideoxy-4-O-methyl-3-{[(2R,3aR,6aR)-3a-({(1S,4S)-5-[3-methyl-4-(trifluoromethyl)pyridin-2-yl]-2,5-diazabicyclo[2.2.1]hept-2-yl}carbonyl)octahydropentalen-2-yl]amino}-D-erythro-pentitol] | 317 nM | 1600 nM | 394 nM |  |
| CO[C@@H]1COCC[C@H]1N[C@@H]1C[C@H]2CCC[C@@]2(C(=O)N2C[C@@H]3C[C@H]2CN3c2cc(C(F)(F)F)cnn2)C1 (stereo in doubt) [Example 6] | 29 nM |  |  |  |
| CN(C1CCOCC1)C1CC2CCCC2(C(=O)N2CCN(c3ccc(C(F)(F)F)cc3)CC2)C1 (centres unmarked) [Compound A, reference compound] |  | > 50000 nM |  |  |
| O=C(N1CCN(c2ccc(C(F)(F)F)cc2)CC1)C12CCCC1CC(N1CCC(c3ccccc3)CC1)C2 (centres unmarked) [Compound B, reference compound] |  | 28000 nM |  |  |
| CO[C@@H]1COCC[C@@H]1N[C@@H]1C[C@H]2CCC[C@@]2(C(=O)N2C[C@H]3C[C@@H]2CN3c2cc(C(F)(F)F)ccn2)C1 [Example 3, 1,5-anhydro-2,3-dideoxy-4-O-methyl-3-{[(2R,3aR,6aR)-3a-({(1R,4R)-5-[4-(trifluoromethyl)pyridin-2-yl]-2,5-diazabicyclo[2.2.1]hept-2-yl}carbonyl)octahydropentalen-2-yl]amino}-D-erythro-pentitol] | 694 nM | 2500 nM | 614 nM |  |
| CO[C@@H]1COCC[C@H]1N[C@@H]1C[C@H]2CCC[C@@]2(C(=O)N2C[C@H]3C[C@@H]2CN3c2cc(C(F)(F)F)ccn2)C1 [Example 4, 1,5-anhydro-2,3-dideoxy-4-O-methyl-3-{[(2R,3aR,6aR)-3a-({(1R,4R)-5-[4-(trifluoromethyl)pyridin-2-yl]-2,5-diazabicyclo[2.2.1]hept-2-yl}carbonyl)octahydropentalen-2-yl]amino}-D-threo-pentitol] | > 6940 nM | 25000 nM | > 6140 nM |  |
| CO[C@@H]1COCC[C@@H]1N[C@@H]1C[C@H]2CCC[C@@]2(C(=O)N2C[C@@H]3C[C@H]2CN3c2cc(C(F)(F)F)cnn2)C1 [Example 5, 1,5-anhydro-2,3-dideoxy-4-O-methyl-3-{[(2R,3aR,6aR)-3a-({(1S,4S)-5-[5-(trifluoromethyl)pyridazin-3-yl]-2,5-diazabicyclo[2.2.1]hept-2-yl}carbonyl)octahydropentalen-2-yl]amino}-D-erythro-pentitol] | 7 nM |  |  |  |
| CO[C@@H]1COCC[C@@H]1N[C@@H]1C[C@H]2CCC[C@@]2(C(=O)N2[C@@H]3CC[C@H]2CN(c2cc(C(F)(F)F)ccn2)C3)C1 [Example 8, 1,5-anhydro-2,3-dideoxy-4-O-methyl-3-{[(2R,3aR,6aR)-3a-({(1R,5S)-3-[4-(trifluoromethyl)pyridin-2-yl]-3,8-diazabicyclo[3.2.1]oct-8-yl}carbonyl)octahydropentalen-2-yl]amino}-D-erythro-pentitol] | > 6940 nM | 14400 nM | > 3550 nM |  |
| O=C(O)c1cccc(C2CCN([C@H]3C[C@H]4CCC[C@@]4(C(=O)N4C[C@@H]5C[C@H]4CN5c4cc(C(F)(F)F)ccn4)C3)CC2)c1 [Example 9, 3-{1-[(2S,3aR,6aR)-3a-({(1S,4S)-5-[4-(trifluoromethyl)pyridin-2-yl]-2,5-diazabicyclo[2.2.1]hept-2-yl}carbonyl)octahydropentalen-2-yl]piperidin-4-yl}benzoic acid] | 22 nM |  | 116 nM | 470 nM |
| O=C(O)c1cccc(C2CCN([C@@H]3C[C@H]4CCC[C@@]4(C(=O)N4C[C@@H]5C[C@H]4CN5c4cc(C(F)(F)F)ccn4)C3)CC2)c1 [Example 10, 3-{1-[(2R,3aR,6aR)-3a-({(1S,4S)-5-[4-(trifluoromethyl)pyridin-2-yl]-2,5-diazabicyclo[2.2.1]hept-2-yl}carbonyl)octahydropentalen-2-yl]piperidin-4-yl}benzoic acid] | 38 nM | 1600 nM | 394 nM |  |
| CO[C@@H]1COCC[C@@H]1N[C@@H]1C[C@H]2CCC[C@@]2(C(=O)N2C[C@@H]3C[C@H]2CN3c2cc(C(F)(F)F)cc(C)n2)C1 [Example 11, 1,5-anhydro-2,3-dideoxy-4-O-methyl-3-{[(2R,3aR,6aR)-3a-({(1S,4S)-5-[6-methyl-4-(trifluoromethyl)pyridin-2-yl]-2,5-diazabicyclo[2.2.1]hept-2-yl}carbonyl)octahydropentalen-2-yl]amino}-D-erythro-pentitol] | 74 nM |  |  |  |
| CO[C@@H]1COCC[C@@H]1N[C@@H]1C[C@H]2CCC[C@@]2(C(=O)N2C[C@@H]3C[C@H]2CN3c2cccc(C(F)(F)F)c2F)C1 [Example 17, 1,5-anhydro-2,3-dideoxy-3-{[(2R,3aR,6aR)-3a-({(1S,4S)-5-[2-fluoro-3-(trifluoromethyl)phenyl]-2,5-diazabicyclo[2.2.1]hept-2-yl}carbonyl)octahydropentalen-2-yl]amino}-4-O-methyl-D-erythro-pentitol] | 160 nM | 1290 nM | 316 nM |  |
| CO[C@@H]1COCC[C@@H]1N[C@@H]1C[C@H]2CCC[C@@]2(C(=O)N2C[C@@H]3C[C@H]2CN3c2nccc(C(F)(F)F)c2F)C1 [Example 21, 1,5-anhydro-2,3-dideoxy-3-{[(2R,3aR,6aR)-3a-({(1S,4S)-5-[3-fluoro-4-(trifluoromethyl)pyridin-2-yl]-2,5-diazabicyclo[2.2.1]hept-2-yl}carbonyl)octahydropentalen-2-yl]amino}-4-O-methyl-D-erythro-pentitol] | 91 nM | 821 nM | 201 nM |  |
| CO[C@@H]1COCC[C@@H]1N[C@@H]1C[C@H]2CCC[C@@]2(C(=O)N2C[C@@H]3C[C@H]2CN3c2cccc(C(F)(F)F)c2C)C1 [Example 23, 1,5-anhydro-2,3-dideoxy-4-O-methyl-3-{[(2R,3aR,6aR)-3a-({(1S,4S)-5-[2-methyl-3-(trifluoromethyl)phenyl]-2,5-diazabicyclo[2.2.1]hept-2-yl}carbonyl)octahydropentalen-2-yl]amino}-D-erythro-pentitol] | 158 nM | 1110 nM | 272 nM |  |
| CO[C@@H]1COCC[C@@H]1N[C@@H]1C[C@H]2CCC[C@@]2(C(=O)N2C[C@@H]3C[C@H]2CN3c2cc(C)cc(C(F)(F)F)c2)C1 [Example 24, 1,5-anhydro-2,3-dideoxy-4-O-methyl-3-{[(2R,3aR,6aR)-3a-({(1S,4S)-5-[3-methyl-5-(trifluoromethyl)phenyl]-2,5-diazabicyclo[2.2.1]hept-2-yl}carbonyl)octahydropentalen-2-yl]amino}-D-erythro-pentitol] | 116 nM | 1390 nM | 341 nM |  |
| COc1ccc(N2C[C@@H]3C[C@H]2CN3C(=O)[C@@]23CCC[C@@H]2C[C@@H](N[C@H]2CCOC[C@H]2OC)C3)cc1C(F)(F)F [Example 31, 1,5-anhydro-2,3-dideoxy-3-{[(2R,3aR,6aR)-3a-({(1S,4S)-5-[4-methoxy-3-(trifluoromethyl)phenyl]-2,5-diazabicyclo[2.2.1]hept-2-yl}carbonyl)octahydropentalen-2-yl]amino}-4-O-methyl-D-erythro-pentitol] | 22 nM | 1020 nM | 250 nM |  |
